Measured values as given in US20040214158A1, “Treatment of human papillomavirus (hpv)-infected cells” (priority 2000, published 2004).

Key:
[1] = system: VERO—African Green Monkey kidney cell line; assay: GCV cytotoxicity on transfected VERO cells; assay type: cell-based; conditions: VERO cells transfected with pNSGLTK-8; different concentrations, 6 days
Text: (§1) To test the specificity of the methods described herein, an HPV positive cell line (CaSKi) and four HPV-negative cell lines were transfected with the plasmid plasmid pNSGLTK-8 described herein.

[2] = system: untransfected cell lines; assay: TUNEL staining of untransfected cell lines; assay type: cell-based; conditions: 20.0 μg/ml, six to eight days (data not shown)
Text: (§2) The DeadEnd Colorimetric Apoptosis Detection System (Promega, Wis.) is a modified TUNEL (TdT-mediated dUTP Nick-End Labeling) assay in which the enzyme Terminal deoxynucleotidyl Transferase (TdT) incorporates biotinylated nucleotides at the 3′-OH DNA ends (1, 20). Streptavidin horseradish-peroxidase is then bound to the biotinylated nucleotides, which are detected by hydrogen peroxide and diaminobenzidine (DAB), a stable chromogen. Using this procedure, apoptotic nuclei stained dark brown when visualized under a light microscope.

[3] = system: SiHa cells; assay: TUNEL apoptosis detection in transfected SiHa cells; assay type: cell-based, human; conditions: SiHa cells transfected with pNSGLTK-8; 20.0 μg/ml GCV, eight to ten days
Text: as §2

[4] = system: CaSki cells; assay: Confocal microscopy of HSV1-TK protein and PI nuclear staining in transfected CaSki cells; assay type: cell-based, human; conditions: CaSki cells transfected with pNSGLTK-8; 20 ug/ml GCV for 2 days
Experimental: CaSki cells were transfected with HPV16 LCR driven HSV1-TK construct (pNSGLTK-8). After 48 hours, cell were fixed and HSV-TK protein was detected using polyclonal rabbit anti-HSV1-TK antibody and FITC-conjugated goat anti-rabbit secondary antibody. The nuclear staining was done with propidium iodide. The cells were examined by confocal microscopy.
Cell were fixed and HSV1-TK protein was detected using polyclonal rabbit anti-HSV1-TK antibody and FITC-conjugated goat anti-rabbit secondary antibody. The nuclear staining was done with propidium iodide. The cells were examined by confocal microscopy.

[5] = system: SiHa cells; assay: MTS cell proliferation assay, GCV on transfected SiHa cells; assay type: cell-based, human; conditions: SiHa cells transfected with pNSGLTK-8, 20.0 μg/ml
Experimental: (§3) Percent survival was calculated as follows: [formula]

[6] = system: CaSki cells; assay: TUNEL apoptosis detection in transfected CaSki cells; assay type: cell-based, human
Text: as §2

[7] = system: Human oral squamous cell carcinoma cell, SSC9; assay: GCV cytotoxicity on transfected SSC9 cells; assay type: cell-based; conditions: SSC9 cells transfected with pNSGLTK-8; different concentrations, 6 days
Text: as §1

[8] = system: HSC3 cells; assay: GCV cytotoxicity on transfected HSC3 cells; assay type: cell-based, human; conditions: HSC3 cells transfected with pNSGLTK-8; different concentrations, 6 days
Experimental: as §3

[9] = system: CaSki cells; assay: MTS cell proliferation assay, GCV/ACV on transfected CaSki cells; conditions: for effect on cell viability: CaSki cells mock-transfected or transfected with control plasmid pNSGL0; for growth inhibition: CaSki cells transfected with HPV 16 LCR-driven HSV 1-TK plasmid, 20-30 μg/ml for 6-8 days
Experimental: All transfections were performed by calcium phosphate mediated transfection using the Profection Mammalian Transfection Systems (Promega, Wis.) according to the manufacturer's instructions. Cells were seeded at a density of 2×10^5 cells in each well in two mls of DMEM and grown to 50-60% confluence. One μg of plasmid DNA was used for transfecting each cell line. The calcium phosphate-DNA mix was overlaid on the cells for four to six hours and then replaced by two mls of complete medium. For mock-transfections, no DNA was added to the calcium phosphate transfection reagent. To measure promoter activity with a standard luciferase assay (Promega, Wis.) the transfected cells were harvested after 24-48 hours. To analyze HSV 1-TK gene expression by RT-PCR, the transfected cells were harvested 48-60 hours after transfection.
The CaSki, SiHa, HSC3 and HeLa cell lines were transfected with the pNSGLTK-8 or pNSGL0 plasmids or mock transfected with no plasmid. […] The absorbance at 490 nm is a measure of the number of living cells in the culture. Percent survival was calculated as follows: [formula]

[10] = system: HeLa cells; assay: GCV killing of transfected HeLa cells; assay type: cell-based, human; conditions: HeLa cells transfected with pNSGLTK-8; 20.0 μg/ml, two weeks (data not shown)
Experimental: as §3

[11] = taken orally by patients, clinical trials (Sugawara et al. 2000); cited from earlier work

SMILES	cytotoxic effect [1]	apoptotic cells (TUNEL staining) [2]	apoptosis (TUNEL staining, morphology) [3]	nuclear staining by PI [4]	cells killed ([5]; six days)	cells killed ([5]; two weeks (data not shown))	apoptosis (TUNEL staining, morphology) ([6]; CaSki cells transfected with pNSGLTK-8, 20.0 μg/ml GCV, four days)	cytotoxic effect [7]	cytotoxic effect [8]	cytotoxicity ([9]; CaSKi cells transfected with pNSGLTK-8, 6 days exposure)	effect on cell viability [9]	growth inhibition [9]	effect on cell viability, dose dependence ([9]; CaSki cells transfected with pNSGLTK-8, 0, 5, 10, 20 μg/ml GCV, six days)	cells killed ([9]; CaSki cells transfected with pNSGLTK-8, 20.0 μg/ml, 10 days)	maximal cell death ([9]; CaSki cells transfected with pNSGLTK-8, 20.0 μg/ml, six days)	cells killed [10]	bioavailability [11]	apoptosis (TUNEL staining, morphology) ([6]; cells transfected with pNSGLTK-8, 20.0 μg/ml ACV, six days (FIG. 12: CaSki))	concentration showing cytotoxic effects ([9]; CaSki cells transfected with pNSGLTK-8, ten days exposure) [ng/mL]
Nc1nc(O)c2ncn(COC(CO)CO)c2n1 [GCV, ganciclovir]	did not show any significant cytotoxic effect	did not show an increase in apoptotic cells	significant cell death associated with typical apoptotic morphology	majority of nuclei look disrupted due to early apoptosis	approximately 42%	more than 90%	characteristic apoptotic morphology	did not show any significant cytotoxic effect	did not show any significant cytotoxic effect	cytotoxicity is restricted to HPV positive cell line CaSKi only	No significant effect on cell viability	approximately 80%	dose-dependent effect	more than 95%	approximately 80%	more than 90%	–	–	–
CC(C)[C@H](N)C(=O)OCC(CO)OCn1cnc2c(=O)nc(N)[nH]c21 (stereo partly shown) [valganciclovir]	–	–	–	–	–	–	–	–	–	–	–	–	–	–	–	–	enhance the bioavailability of ganciclovir	–	–
Nc1nc2c(ncn2COCCO)c(=O)[nH]1 [ACV, acyclovir]	–	did not show an increase in apoptotic cells	–	–	–	–	–	–	–	–	refractory	approximately 80%	–	–	–	–	–	Typical apoptotic morphology of TUNEL-stained nuclei	30000
